Data set [1] has as its target T1, human Nav1.2 voltage-gated sodium channels (Homo sapiens, UniProt Q99250).
T1 construct: expressed in transfected cells; host or cells: HEK293
The data set is described as follows: Manual whole-cell patch-clamp, inhibition of hNav1.2 sodium current. It is filed as cell-based. Conditions: HEK293 cells stably transfected with SCN2A, holding potential -80 mV, peak current. As for the experimental part: (§1) The potential inhibitory effect of Compound I-XXII on human voltage-gated sodium channels (hNav1.2/1.7) was evaluated by manual patch-clamp system according to the procedures as described. HEK293 cell line stably transfected with SCN2A/SCN9A gene was employed in this study and Tetrodotoxin (TTX) was used as a positive control to ensure the good quality of the assay.
(§2) General procedure: HEK 293 cells were stably transfected with human Nav1.2 or Nav1.7 voltage-gated sodium channels. The cells are routinely maintained in culture medium containing in 90% DMEM, 10% FBS, 100 U/mL Penicillin-Streptomycin and […] of G418. Before the assay, the cells were resuspended and plated onto the coverslips at 5×10^5 cells/per 6 cm cell culture dish for use. The voltage-gated Nav1.2 and Nav1.7 channel current was recorded at room temperature (25° C.) from randomly selected transfected cells under whole-cell patch clamp systems equipped with EPC10 USB (HEKA) or Multiclamp 700B amplifier (Molecular Devices), while electrical data was digitalized by Digidata1440A with sampling frequency over 10 kHz and acquired with Patchmaster or pClamp10 respectively. The glass electrode with resistance ranged from 2 to 3.5 MW was prepared by micropipette puller P-97 (Sutter Instrument) and filled with internal solutions (in mM): 140 KCl, 2 MgCl2, 10 EGTA, 10 HEPES and 5 MgATP (pH adjusted to 7.35 with KOH), while cells were bathed in extracellular solutions (in mM) 132 NaCl, 4 KCl, 3 CaCl2, 0.5 MgCl2, 11.1 glucose, and 10 HEPES (pH adjusted to 7.35 with NaOH). After rupture, the series membrane resistance was at least 50% compensated and capacitance was also compensated as well. All cells were voltage-clamped to a holding potential of −80 mV unless otherwise specified. The inward sodium currents were elicited by a 20-ms voltage pulse to 10 mV from −80 mV applied every 15 s. The sodium current was initially recorded for at least 120 seconds to assess the current stability, and only cells with recording parameters over acceptance criteria was finally used to assess the dose response to the local perfusion of Compound I-XXII. The blank vehicle was firstly applied to the patched cells in order to establish the recording baseline. After at least 5 min when the elicited sodium currents reaches stabilization, the test compound was perfused into recording chamber accumulatively from low to high concentrations. The positive control article, Tetrodotoxin (TTX), was also used to challenge same batch of cell in order to ensure the good performance of the recording system. All experiments were performed in triplicate for IC50 determination. Upon data acquisition, the PatchMaster or pClamfit software were used to extract the peak current from the original raw data, while the peak current inhibition was defined by equation as shown below.
(§3) The dose response curve for the test compound was plotted with % inhibition against the dose concentration of the test compound using Graphpad Prism 5.0 software, and then the data was fit to a sigmoid dose-response curve with variable slope for IC50 determination.
(In patch-clamp work, channel activity is measured electrically.)

For data set [2], the target named is T2, human Nav1.7 voltage-gated sodium channels (Homo sapiens, UniProt Q15858).
T2 construct: expressed in transfected cells; host or cells: HEK293
T2 sequence (Q15858 whole entry): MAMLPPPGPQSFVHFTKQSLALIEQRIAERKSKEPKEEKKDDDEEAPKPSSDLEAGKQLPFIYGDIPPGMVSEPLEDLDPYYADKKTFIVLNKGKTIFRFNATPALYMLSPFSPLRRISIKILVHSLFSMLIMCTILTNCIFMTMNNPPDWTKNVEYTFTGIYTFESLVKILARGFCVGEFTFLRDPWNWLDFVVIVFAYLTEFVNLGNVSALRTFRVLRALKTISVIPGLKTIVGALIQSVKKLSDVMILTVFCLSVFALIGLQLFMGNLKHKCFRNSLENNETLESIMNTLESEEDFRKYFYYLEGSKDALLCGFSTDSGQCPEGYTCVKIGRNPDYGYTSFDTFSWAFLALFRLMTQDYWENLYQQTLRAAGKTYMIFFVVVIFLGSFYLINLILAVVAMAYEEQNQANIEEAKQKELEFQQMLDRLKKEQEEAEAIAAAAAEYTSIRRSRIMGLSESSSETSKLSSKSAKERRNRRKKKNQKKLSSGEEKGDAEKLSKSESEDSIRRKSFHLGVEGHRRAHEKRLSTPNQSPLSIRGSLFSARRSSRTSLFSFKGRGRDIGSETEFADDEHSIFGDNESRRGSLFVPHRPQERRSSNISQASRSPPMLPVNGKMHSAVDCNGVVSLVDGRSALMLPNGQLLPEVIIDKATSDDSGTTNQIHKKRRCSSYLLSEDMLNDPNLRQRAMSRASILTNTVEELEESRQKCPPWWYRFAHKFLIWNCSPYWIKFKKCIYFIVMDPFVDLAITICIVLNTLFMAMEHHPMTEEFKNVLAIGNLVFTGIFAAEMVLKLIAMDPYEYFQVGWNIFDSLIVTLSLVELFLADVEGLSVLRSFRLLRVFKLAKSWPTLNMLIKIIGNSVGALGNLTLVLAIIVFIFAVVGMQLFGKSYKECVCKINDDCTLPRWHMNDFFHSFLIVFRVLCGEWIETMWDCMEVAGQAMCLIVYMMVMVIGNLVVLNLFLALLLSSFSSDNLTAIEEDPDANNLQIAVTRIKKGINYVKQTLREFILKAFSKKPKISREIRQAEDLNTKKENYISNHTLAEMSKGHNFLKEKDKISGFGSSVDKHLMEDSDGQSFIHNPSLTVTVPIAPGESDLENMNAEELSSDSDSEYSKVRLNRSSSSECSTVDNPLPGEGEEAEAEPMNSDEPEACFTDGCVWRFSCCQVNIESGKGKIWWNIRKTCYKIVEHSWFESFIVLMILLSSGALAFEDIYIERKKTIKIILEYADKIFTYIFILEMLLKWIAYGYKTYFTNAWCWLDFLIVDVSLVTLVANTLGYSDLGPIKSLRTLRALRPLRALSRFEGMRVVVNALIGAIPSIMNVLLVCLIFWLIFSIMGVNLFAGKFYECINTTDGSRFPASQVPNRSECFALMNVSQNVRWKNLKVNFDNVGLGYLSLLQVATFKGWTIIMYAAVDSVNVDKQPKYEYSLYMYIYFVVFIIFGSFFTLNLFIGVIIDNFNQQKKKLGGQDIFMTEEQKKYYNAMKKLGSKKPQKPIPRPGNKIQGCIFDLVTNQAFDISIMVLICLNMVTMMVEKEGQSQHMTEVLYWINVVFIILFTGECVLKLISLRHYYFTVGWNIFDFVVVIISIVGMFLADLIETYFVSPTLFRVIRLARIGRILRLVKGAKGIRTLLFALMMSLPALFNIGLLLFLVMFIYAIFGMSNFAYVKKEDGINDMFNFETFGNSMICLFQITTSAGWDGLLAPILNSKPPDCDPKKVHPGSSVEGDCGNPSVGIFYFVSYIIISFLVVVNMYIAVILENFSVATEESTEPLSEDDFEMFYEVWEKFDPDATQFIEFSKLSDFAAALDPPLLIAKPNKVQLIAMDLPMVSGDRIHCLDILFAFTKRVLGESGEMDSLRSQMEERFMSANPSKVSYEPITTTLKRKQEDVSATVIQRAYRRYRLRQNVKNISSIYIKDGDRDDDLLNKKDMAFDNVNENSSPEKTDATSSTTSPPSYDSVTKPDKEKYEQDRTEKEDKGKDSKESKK
The data set is described as follows: Manual whole-cell patch-clamp, inhibition of hNav1.7 sodium current. It is filed as cell-based. Conditions: HEK293 cells stably transfected with SCN9A, holding potential -80 mV, peak current. As for the experimental part: as §1, §2, §3

Data set [3] concerns SNL (Spinal Nerve Ligation) rats. Nature of the data set: Mechanical allodynia in SNL (spinal nerve ligation) rats, von Frey. It is filed as in vivo, Sprague-Dawley rats. Conditions: 5 mg/kg i.p., 0.5 h time point post dose. As for the experimental part:
SNL model is a commonly used model to measure surgical induced neuropathic pain. The goal of the study was to evaluate the efficacy of Compound I to attenuate mechanical allodynia in SNL model in Sprague-Dawley rats.
In this study, SNL model was created following typical procedure and the approved drug Tapentadol (XW-TAP) was used as reference compound. Gabapentin was applied as positive control for model validation.
1) 5 mg/kg Compound I: Added 17.13 mg Compound I to 16.96 mL 0.5% methylcellulose in normal saline solution, vortexed to fully mix.
1) Rats were placed individually in a plastic enclosure with a mesh bottom which allowed full access to the paws. Rats were acclimated for 15 min prior to testing.
2) After acclimation, the mid-plantar hind paw was touched with one of a series of eight von Frey hairs with logarithmically incremental stiffness as follows: 3.61 (0.4 g), 3.84 (0.6 g), 4.08 (1 g), 4.31 (2 g), 4.56 (4 g), 4.74 (6 g), 4.93 (8 g) and 5.18 (15 g). The von Frey hairs were presented perpendicularly to the plantar surface with sufficient force to cause slight buckling against the paw and held for approximately 6-8 s. Stimulation was presented at intervals of 5 seconds, allowing for apparent resolution of any behavioral responses to previous stimulus. A positive response was noted if the paw was sharply withdrawn. […]

Data set [4] is described as follows: Rat pharmacokinetic study. As to conditions: male, Sprague-Dawley, plasma, PO, single dose 5.8 mg/kg. It is filed as in vivo, male Sprague-Dawley rats. The protocol:
For rat pharmacokinetic studies, male Sprague-Dawley rats were housed individually and fasted overnight before use. The animal dosing experiments were carried out in accordance to the National Institutes of Health Guide to the Care and Use of Laboratory Animals and the Animal Welfare Act. For Compound I, a single dose of 5.8 mg/kg was administered to each rat in two groups (n=5/group) via intravenous (IV) and oral (PO) administration, respectively. The vehicle used for IV administration was 10% (v/v) CremophorEL in 90% PBS. The vehicle used for PO administration was 0.5% (w/v) methylcellulose in normal saline solution. Blood samples were collected at specified time-points (pre-dose, 30 minutes, 1 hour, 2 hours, 4 hours, 7 hours, 8 hours, 12 hours, 24 hours) following administration to individual rats within IV and PO group. Blood samples were clotted on ice immediately, plasma samples were then isolated by centrifugation and stored frozen (−80° C.) until further analysis. The concentrations of Compound I were individually determined by LC/MS/MS assay. Various pharmacokinetic parameters were calculated using Phoenix™ WinNonlin® software. To quantify the bioconversion efficiency of the Compound I in the circulation system, the bioavailability of Compound I after PO administration was calculated.

The subject of a further data set is metastatic melanoma. As to conditions: Phase 2, patients with metastatic melanoma; cited from earlier work.

The values that follow come from patent publication US11639337B2, “Bicyclic heteroaryl derivatives and preparation and uses thereof” (XWPHARMA LTD., priority 2017, dated 2023).

Structures are written as SMILES.

T1 sequence (Q99250 whole entry): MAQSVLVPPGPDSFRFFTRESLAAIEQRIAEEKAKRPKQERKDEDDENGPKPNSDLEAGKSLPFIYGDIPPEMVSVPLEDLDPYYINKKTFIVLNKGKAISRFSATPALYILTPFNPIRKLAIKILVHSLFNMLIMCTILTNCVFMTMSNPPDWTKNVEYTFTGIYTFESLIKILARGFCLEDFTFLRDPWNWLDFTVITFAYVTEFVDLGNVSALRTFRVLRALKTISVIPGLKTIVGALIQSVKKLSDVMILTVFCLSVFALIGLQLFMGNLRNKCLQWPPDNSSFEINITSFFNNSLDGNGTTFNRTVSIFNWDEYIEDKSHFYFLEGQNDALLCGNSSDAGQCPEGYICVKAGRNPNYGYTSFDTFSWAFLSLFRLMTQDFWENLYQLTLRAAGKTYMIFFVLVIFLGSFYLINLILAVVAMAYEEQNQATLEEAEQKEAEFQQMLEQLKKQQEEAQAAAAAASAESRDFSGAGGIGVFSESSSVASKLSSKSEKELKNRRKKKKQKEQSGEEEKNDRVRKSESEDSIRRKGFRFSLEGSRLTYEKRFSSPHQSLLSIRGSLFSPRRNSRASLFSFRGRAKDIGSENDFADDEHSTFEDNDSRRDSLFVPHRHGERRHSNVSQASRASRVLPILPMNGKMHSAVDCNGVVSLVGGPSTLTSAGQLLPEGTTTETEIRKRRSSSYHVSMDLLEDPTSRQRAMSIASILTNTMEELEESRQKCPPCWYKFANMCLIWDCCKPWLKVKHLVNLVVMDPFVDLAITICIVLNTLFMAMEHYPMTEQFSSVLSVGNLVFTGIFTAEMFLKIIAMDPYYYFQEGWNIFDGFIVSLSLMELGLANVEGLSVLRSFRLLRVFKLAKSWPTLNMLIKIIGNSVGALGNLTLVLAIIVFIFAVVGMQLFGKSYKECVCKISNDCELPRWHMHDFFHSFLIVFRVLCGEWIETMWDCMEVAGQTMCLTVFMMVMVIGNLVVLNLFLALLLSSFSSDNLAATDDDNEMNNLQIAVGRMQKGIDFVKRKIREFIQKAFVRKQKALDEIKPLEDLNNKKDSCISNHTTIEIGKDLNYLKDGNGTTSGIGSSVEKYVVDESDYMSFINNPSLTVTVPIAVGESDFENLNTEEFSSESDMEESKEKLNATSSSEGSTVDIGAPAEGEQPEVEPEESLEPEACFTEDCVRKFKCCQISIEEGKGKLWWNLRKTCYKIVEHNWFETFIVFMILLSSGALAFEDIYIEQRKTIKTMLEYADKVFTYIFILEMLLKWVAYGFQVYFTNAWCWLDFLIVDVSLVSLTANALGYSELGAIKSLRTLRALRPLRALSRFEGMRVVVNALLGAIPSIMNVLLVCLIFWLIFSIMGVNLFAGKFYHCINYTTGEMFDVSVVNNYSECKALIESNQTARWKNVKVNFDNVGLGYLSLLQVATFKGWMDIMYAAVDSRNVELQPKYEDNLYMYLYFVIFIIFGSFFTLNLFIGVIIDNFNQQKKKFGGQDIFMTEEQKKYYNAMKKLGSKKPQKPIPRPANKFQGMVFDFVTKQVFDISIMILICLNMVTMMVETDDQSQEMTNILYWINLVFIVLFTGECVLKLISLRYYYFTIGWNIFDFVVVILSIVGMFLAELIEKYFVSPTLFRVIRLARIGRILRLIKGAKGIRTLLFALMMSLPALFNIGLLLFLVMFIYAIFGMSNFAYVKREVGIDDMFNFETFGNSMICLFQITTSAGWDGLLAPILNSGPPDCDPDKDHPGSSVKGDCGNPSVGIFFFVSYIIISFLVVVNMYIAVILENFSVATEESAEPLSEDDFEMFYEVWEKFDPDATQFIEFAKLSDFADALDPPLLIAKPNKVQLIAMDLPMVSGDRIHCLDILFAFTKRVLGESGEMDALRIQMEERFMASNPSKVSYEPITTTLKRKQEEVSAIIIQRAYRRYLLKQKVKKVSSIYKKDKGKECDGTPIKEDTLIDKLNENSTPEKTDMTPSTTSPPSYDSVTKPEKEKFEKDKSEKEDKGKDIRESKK

Turning to `Nc1nc2ccc(S(F)(F)(F)(F)F)cc2s1` [Compound I, 6-(Pentafluorosulfanyl)benzo[d]thiazol-2-amine], half-maximal inhibition in data set [1] (IC50) required 4670 nM. Further, the concentration for half-maximal inhibition (IC50) – broadly, the concentration that gives 50% inhibition – in data set [2] was determined as 682 nM. Besides, the “anti-allodynic effect on SNL-induced mechanical allodynia” value in data set [3] was “reversed SNL-induced mechanical allodynia”. In data set [4], the area under the curve AUC(0-t) (commonly exposure summed from dosing to a finite time, without extrapolation to infinity) turned out to be 7690 ng·h/mL; the peak level (Cmax) was 942 ng/mL; the Tmax (as a rule, the time from dosing to the highest level) is 2.3 h; the half-life (in general, the time in which the quantity being followed falls by half) is 7.11 h.
Turning to `Nc1nc2ccc(SC(F)(F)F)cc2[se]1` [Compound IX, 6-((Trifluoromethyl)thio)benzo[d][1,3]selenazol-2-amine], the concentration for half-maximal inhibition (IC50) was determined as 15300 nM in data set [1] and 1170 nM in data set [2].
With `Nc1nc2ccc(S(F)(F)(F)(F)F)cc2[se]1` [Compound V, 6-(Pentafluorosulfanyl)benzo[d][1,3]selenazol-2-amine], the results for the half-inhibitory concentration (IC50) in data set [1] and in data set [2] were 4370 nM and 722 nM, respectively.
Turning to `Nc1nc2ccc(C(F)(F)F)cc2[se]1` [Compound VI, 6-(Trifluoromethyl)benzo[d][1,3]selenazol-2-amine], the IC50 in data set [1] was 10100 nM; in data set [2], 745 nM.
For `Nc1nc2ccc(OC(F)(F)F)cc2[se]1` [Compound VII, 6-(Trifluoromethoxy)benzo[d][1,3]selenazol-2-amine] the same measures were 18000 nM and 1360 nM.
With `Nc1nc2ccc(OC(F)(F)F)cc2s1` [Riluzole], the RECIST grade entry in the data set with metastatic melanoma was “no overall improvement of RECIST grade”.
